Measured values reported in US8536202B2, “Triazole-substituted anthranilamides as pesticides” (Bayer Cropscience AG, priority 2010, dated 2013).
Where two headings read alike, the source gives them in different places.

Experiments:
[1] = tested on: larvae of the mustard beetle (Phaedon cochleariae); assay: Phaedon test (PHAECO spray treatment); type: in vivo; settings: 168 h, read-out: activity in %
Method in brief: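 Compound dissolved in acetone/dimethylformamide with alkylaryl polyglycol ether emulsifier, then diluted with emulsifier-containing water to test concentration for spray treatment of Phaedon cochleariae larvae. Activity scored after 7 days as % larvae killed (100% = all dead, 0% = none).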

[2] = tested on: caterpillars of the armyworm (Spodoptera frugiperda); assay: Spodoptera frugiperda test (SPODFR spray treatment); type: in vivo; settings: 168 h, read-out: activity in %
Method in brief: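 Maize leaf discs sprayed with compound diluted in emulsifier-containing water (acetone/DMF solvent, alkylaryl polyglycol ether emulsifier), dried, then infested with armyworm caterpillars. Kill scored after 7 days as % mortality, 100% = all caterpillars dead, 0% = none.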

[3] = tested on: green peach aphid (Myzus persicae); assay: Myzus test (MYZUPE spray treatment), Use Example 4; type: in vivo; settings: 144 h; for pest or weed control at 100 g/ha: read-out: activity in %
Experimental: Solvents: 78 parts by weight of acetone • • 1.5 parts by weight of dimethylformamide
Emulsifier: 0.5 part by weight of alkylaryl polyglycol ether
An appropriate preparation of active compound is prepared by mixing 1 part by weight of active compound with the stated amounts of solvents and emulsifier and diluting the concentrate with emulsifier-containing water to the desired concentration.
Leaf discs of Chinese cabbage (Brassica pekinensis) infested by all stages of the green peach aphid (Myzus persicae) are sprayed with a preparation of active compound at the desired concentration.
After 6 days, the activity in % is ascertained. Here, 100% means that all of the aphids have been killed; 0% means that no aphids have been killed.

[4] = log P determination by HPLC on reversed-phase columns (EEC Directive 79/831 Annex V.A8); type: physicochemical; settings: pH 2.7
Method in brief: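 log P from reversed-phase LC-MS retention at pH 2.7, 0.1% formic acid water/acetonitrile gradient 10–95% acetonitrile. Calibrated against C3–C16 unbranched alkan-2-ones, interpolating linearly between adjacent alkanones.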

[5] = HPLC on reversed-phase columns (C 18), EEC Directive 79/831 Annex V.A8, read-out: logP
[6] = reversed-phase C18 HPLC column, HPLC on reversed-phase columns (C 18), EEC Directive 79/831 Annex V.A8, read-out: logP

Structure (SMILES)	pest or weed control at 100 g/ha ([1]; 100 g/ha, after 7 days)	pest or weed control at 100 g/ha ([2]; 100 g/ha, after 7 days)	pest or weed control at 100 g/ha ([3]; 100 g/ha, after 6 days)	chromatographic logP [4]	pest or weed control at 100 g/ha [1]	pest or weed control at 100 g/ha [2]	pest or weed control at 100 g/ha [3]	chromatographic logP [4, 5]	chromatographic logP [4, 6]	pest or weed control at 20 g/ha ([3]; 20 g/ha, after 6 days)
Cc1cc(C#N)cc(C(=O)NC(C)C)c1NC(=O)c1cc(Cn2ncc(C(F)(F)C(F)(F)F)n2)nn1-c1ncccc1Cl [Example 364]	100%	100%	100%	3.52	–	–	–	–	–	–
Cc1cc(Cl)cc(C(=O)NC2CC2)c1NC(=O)c1cc(Cn2nccn2)nn1-c1ncccc1Cl [Example 120]	100%	100%	90%	2.26	–	–	–	–	–	–
Cc1cc(Cl)cc(C(=O)NCC2CC2)c1NC(=O)c1cc(Cn2cc(C(F)(F)C(F)(F)F)nn2)nn1-c1ncccc1Cl [Example 305]	100%	100%	100%	3.55	–	–	–	–	–	–
Cc1cc(Cl)cc(C(=O)NC(C)(C)C)c1NC(=O)c1cc(Cn2nc(C(F)(F)F)c(C(F)(F)F)n2)nn1-c1ncccc1Cl [Example 393]	100%	100%	90%	4.59	–	–	–	–	–	–
CNC(=O)c1cc(Cl)cc(C)c1NC(=O)c1cc(Cn2cc(C(F)(F)C(F)(F)F)nn2)nn1-c1ncccc1Cl [Example 299]	100%	100%	80%	3.02	–	–	–	–	–	–
Cc1cc(C#N)cc(C(=O)NC(C)C2CC2)c1NC(=O)c1cc(Cn2cc(C(F)(F)F)nn2)nn1-c1ncccc1Cl (stereo not drawn) [Example 178]	100%	100%	100%	2.95	–	–	–	–	–	–
CCNC(=O)c1cc(C#N)cc(C)c1NC(=O)c1cc(Cn2cc(C(F)(F)C(F)(F)F)nn2)nn1-c1ncccc1Cl [Example 319]	100%	100%	100%	2.89	–	–	–	–	–	–
Cc1cc(C#N)cc(C(=O)NC2CC2)c1NC(=O)c1cc(Cn2cc(C(F)(F)C(F)(F)C(F)(F)F)nn2)nn1-c1ncccc1Cl [Example 342]	–	–	–	–	100%	100%	100%	3.22	–	–
Cc1cc(C#N)cc(C(=O)NC2CC2)c1NC(=O)c1cc(Cn2ncc(C(F)(F)F)n2)nn1-c1ncccc1Br [Example 11]	100%	100%	100%	–	–	–	–	–	2.55	–
Cc1cc(Cl)cc(C(=O)NC(C)C)c1NC(=O)c1cc(Cn2cc(C(F)(F)C(F)(F)F)nn2)nn1-c1ncccc1Cl [Example 303]	100%	100%	100%	3.5	–	–	–	–	–	–
Cc1cc(I)cc(C(=O)NC(C)(C)C)c1NC(=O)c1cc(Cn2ncc(C(F)(F)C(F)(F)F)n2)nn1-c1ncccc1Cl [Example 356]	100%	100%	80%	4.47	–	–	–	–	–	–
CNC(=O)c1cc(C#N)cc(C)c1NC(=O)c1cc(Cn2ncc(C(F)(C(F)(F)F)C(F)(F)F)n2)nn1-c1ncccc1Cl [Example 249]	100%	100%	80%	3.39	–	–	–	–	–	–
Cc1cc(Cl)cc(C(=O)NCC#N)c1NC(=O)c1cc(Cn2cc(C(F)(F)F)nn2)nn1-c1ncccc1Cl [Example 196]	100%	100%	100%	2.61	–	–	–	–	–	–
CSC[C@H](C)NC(=O)c1cc(C#N)cc(C)c1NC(=O)c1cc(Cn2ncc(C(F)(F)F)n2)nn1-c1ncccc1Cl [Example 133]	100%	100%	90%	3.33	–	–	–	–	–	–
Cc1cc(Cl)cc(C(=O)NC(C)C2CC2)c1NC(=O)c1cc(Cn2cc(C(F)(F)C(F)(F)C(F)(F)F)nn2)nn1-c1ncccc1Cl (stereo not drawn) [Example 327]	–	–	–	–	100%	100%	100%	4.15	–	–
Cc1cc(Cl)cc(C(=O)NC(C)(C)C)c1NC(=O)c1cc(Cn2ncc(C(F)(F)C(F)(F)F)n2)nn1-c1ncccc1Cl [Example 360]	100%	100%	80%	4.27	–	–	–	–	–	–
CNC(=O)c1cc(C#N)cc(C)c1NC(=O)c1cc(Cn2cc(C(F)(F)F)nn2)nn1-c1ccccc1Cl [Example 293]	100%	100%	80%	–	–	–	–	–	2.63	–
CSC[C@H](C)NC(=O)c1cc(Cl)cc(C)c1NC(=O)c1cc(Cn2cc(C(F)(F)F)nn2)nn1-c1ncccc1Cl [Example 194]	100%	100%	100%	3.35	–	–	–	–	–	–
CNC(=O)c1cc(Cl)cc(Cl)c1NC(=O)c1cc(Cn2ncc(C(F)(C(F)(F)F)C(F)(F)F)n2)nn1-c1ncccc1Cl [Example 273]	100%	100%	100%	3.69	–	–	–	–	–	–
Cc1cc(C#N)cc(C(N)=O)c1NC(=O)c1cc(Cn2ncc(C(F)(C(F)(F)F)C(F)(F)F)n2)nn1-c1ncccc1Cl [Example 255]	100%	100%	80%	3.19	–	–	–	–	–	–
Cc1cc(C#N)cc(C(=O)NC(C)C2CC2)c1NC(=O)c1cc(Cn2cc(C(F)(F)C(F)(F)C(F)(F)F)nn2)nn1-c1ncccc1Cl (stereo not drawn) [Example 331]	–	–	–	–	100%	100%	100%	3.71	–	–
Cc1cc(I)cc(C(=O)NCC#N)c1NC(=O)c1cc(Cn2ncc(C(F)(F)F)n2)nn1-c1ncccc1Cl [Example 165]	100%	100%	100%	3.11	–	–	–	–	–	–
Cc1cc(Cl)cc(C(=O)NC(C)(C)C)c1NC(=O)c1cc(Cn2cc(C(F)(C(F)(F)F)C(F)(F)F)nn2)nn1-c1ncccc1Cl [Example 228]	100%	100%	80%	–	–	–	–	–	4.19	–
CNC(=O)c1cc(C#N)cc(C)c1NC(=O)c1cc(Cn2nnc3cc(C(F)(F)F)ccc32)nn1-c1ncccc1Cl [Example 101]	100%	100%	100%	2.76	–	–	–	–	–	–
CNC(=O)c1cc(C#N)cc(C)c1NC(=O)c1cc(Cn2cc(C(F)(F)F)nn2)nn1-c1ncccc1Br [Example 5]	100%	100%	100%	–	–	–	–	–	2.66	–
Cc1cc(C#N)cc(C(N)=O)c1NC(=O)c1cc(Cn2cc(C(F)(F)F)nn2)nn1-c1ncccc1Cl [Example 184]	100%	100%	–	2.12	–	–	–	–	–	100%
CNC(=O)c1cc(Cl)cc(Cl)c1NC(=O)c1cc(Cn2cc(C(F)(F)F)nn2)nn1-c1ncccc1Cl [Example 197]	100%	100%	90%	2.59	–	–	–	–	–	–
